From US6831199B1, “Pyrimidine compounds and derivatives thereof” (G. D. Searle & Co., priority 1995, dated 2004)
Structures can show the parent of a compound that is named as a salt.

Key:
[1] = target: T1, Human fibrinogen receptor (αIIbβ3) (Homo sapiens, UniProt P05106+P08514); experiment: Purified IIb/IIIa receptor assay (solid phase receptor assay, competition with biotinylated vitronectin); format: binding; details: read-out: IIb/IIIa IC50
T1 construct: Human fibrinogen receptor (αIIbβ3) was purified from outdated platelets; from tissue; host or cells: outdated human platelets
Method in brief: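 Competition format: 1 nM biotinylated vitronectin plus test compound (highest 1.0×10^−4 M), 2 h at room temperature on wells coated with platelet-derived αIIbβ3. Buffer was TBS containing 1.0 mM Ca, Mg, Mn, pH 7.4. HRP anti-biotin readout at 450 nm; normalized to maximum binding, four-parameter curve fit.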

[2] = target: T2, Human vitronectin receptor (αvβ3) (Homo sapiens, UniProt P05106+P06756); experiment: Vitronectin adhesion assay (solid phase receptor assay, competition with biotinylated vitronectin); format: binding; details: read-out: AvB3 IC50
T2 construct: Human vitronectin receptor (αvβ3) was purified from human placenta; from tissue; host or cells: human placenta
Method in brief: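 Purified human αvβ3 coated overnight at 4 °C in TBS with 1.0 mM Ca++, Mg++, Mn++, pH 7.4; compounds (top final 1.0×10^−4 M) competed with 1 nM biotinylated vitronectin for 2 h at room temperature. Bound ligand detected by HRP anti-biotin/OPD at A450; values normalized to no-competitor controls, four-parameter curve fit.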

| IC50 [1] [nM] | IC50 [2] [nM] | SMILES |
| --- | --- | --- |
| 45900 | 13000 | CCOC(=O)/N=C(/NC(=O)OCC)Nc1cccc(C(=O)NCC(=O)NC(CC(=O)O)c2cc(Cl)cc(Cl)c2)c1 (stereo not drawn) [Example 166, 3,5-dichloro-β-[[2-[[[3-[[[(ethoxycarbonyl)amino][(ethoxycarbonyl)imino]methyl]amino]phenyl]carbonyl]amino]acetyl]amino]benzenepropanoic acid] |
| 269 | 2.29 | N=C(N)Nc1cc(C(=O)NCC(=O)NC(CC(=O)O)c2cc(Cl)cc(Cl)c2)ccc1Cl (stereo not drawn) [Example 168, β-[[2-[[[3-[(aminoiminomethyl)amino]-4-chlorophenyl]carbonyl]amino]acetyl]amino]-3,5-dichlorobenzenepropanoic acid, trifluoroacetate salt] |
| 83.2 | 0.35 | C#C[C@H](CC(=O)O)NC(=O)CNC(=O)c1cccc(N/C(N)=N\C(N)=O)c1 [Example 171, 3S-[[2-[[[3-[[amino[(aminocarbonyl)imino]methyl]amino]phenyl]carbonyl]amino]acetyl]amino]-4-pentynoic acid, trifluoroacetate salt, hydrate] |
| 17.4 | 0.5 | C#C[C@H](CC(=O)O)NC(=O)CNC(=O)c1ccc(Cl)c(NC(=N)N)c1 [Example 173, 3S-[[2-[[[3-[(aminoiminomethyl)amino]-4-chlorophenyl]carbonyl]amino]acetyl]amino]-4-pentynoic acid, trifluoroacetate salt] |
| 76400 | 49400 | CCOC(=O)NC(=S)Nc1cccc(C(=O)NCC(=O)NC(CC(=O)O)c2cc(Cl)cc(Cl)c2)c1 (stereo not drawn) [Example 240, 3,5-dichloro-β-[[2-[[[3-[[[(ethoxycarbonyl)amino]thioxomethyl]amino]phenyl]carbonyl]amino]acetyl]amino]benzenepropanoic acid] |
| 17200 | 557 | CCOC(=O)NC(=N)Nc1cccc(C(=O)NCC(=O)NC(CC(=O)O)c2cc(Cl)cc(Cl)c2)c1 (stereo not drawn) [Example 241, 3,5-dichloro-β-[[2-[[[3-[[[(ethoxycarbonyl)amino]iminomethyl]amino]phenyl]carbonyl]amino]acetyl]amino]benzenepropanoic acid, trifluoroacetate salt, monohydrate] |
| 533 | 2.28 | N=C(N)Nc1cccc(C(=O)NCC(=O)NC(CC(=O)O)c2cccc(-c3ccccc3)c2)c1 (stereo not drawn) [Example 242, β-[[2-[[[3-[(aminoiminomethyl)amino]phenyl]carbonyl]amino]acetyl]amino][1,1′-biphenyl]-3-propanoic acid] |
| 23.6 | 0.35 | N=C(N)Nc1cccc(C(=O)NCC(=O)NC(CC(=O)O)c2cncnc2)c1 (stereo not drawn) [Example 243, β-[[2-[[[3-[(aminoiminomethyl)amino]phenyl]carbonyl]amino]acetyl]amino][pyrimidine-5-propanoic acid, trifluoroacetate salt] |
| 4560 | 17.6 | Cc1ccsc1C(CC(=O)O)NC(=O)CNC(=O)c1cccc(NC(=N)N)c1 (stereo not drawn) [Example 244, β-[[2-[[[3-[(aminoiminomethyl)amino]phenyl]carbonyl]amino]acetyl]amino]-3-methylthiophene-2-propanoic acid, trifluoroacetate salt] |
| 417 | 1.24 | CS(=O)(=O)c1cccc(C(CC(=O)O)NC(=O)CNC(=O)c2cccc(NC(=N)N)c2)c1 (stereo not drawn) [Example 247, β-[[2-[[[3-[(aminoiminomethyl)amino]phenyl]carbonyl]amino]acetyl]amino]-3-(methylsulfonyl)benzenepropanoic acid, bis(trifluoroacetate)salt] |
| 244 | 5.31 | CCOc1cc(OCC)cc(C(CC(=O)O)NC(=O)CNC(=O)c2cccc(NC(=N)N)c2)c1 (stereo not drawn) [Example 249, β-[[2-[[[3-[(aminoiminomethyl)amino]phenyl]carbonyl]amino]acetyl]amino]-3,5-diethoxybenzenepropanoic acid, trifluoroacetate salt] |
| 213 | 1.52 | N=C(N)Nc1cccc(C(=O)NCC(=O)NC(CC(=O)O)c2ccn[nH]2)c1 (stereo not drawn) [Example 252, β-[[2-[[[3-[(aminoiminomethyl)amino]phenyl]carbonyl]amino]acetyl]amino]-1H-pyrazole-3-propanoic acid, trifluoroacetate salt] |
| 109 | 0.84 | Cc1ccc(C(CC(=O)O)NC(=O)CNC(=O)c2cccc(NC(=N)N)c2)s1 (stereo not drawn) [Example 253, β-[[2-[[[3-[(aminoiminomethyl)amino]phenyl]carbonyl]amino]acetyl]amino]-5-methylthiophene-2-propanoic acid, trifluoroacetate salt] |
| 6910 | 16.5 | N=C(N)Nc1cccc(C(=O)NCC(=O)NC(CC(=O)O)c2cc(Cl)cc(Cl)c2Cl)c1 (stereo not drawn) [Example 254, β-[[2-[[[3-[(aminoiminomethyl)amino]phenyl]carbonyl]amino]acetyl]amino]-2,3,5-trichlorobenzenepropanoic acid, trifluoroacetate salt] |
| 6050 | 28.4 | N=C(N)Nc1cccc(C(=O)NCC(=O)NC(CC(=O)O)c2ccccc2OCC(=O)O)c1 (stereo not drawn) [Example 255, β-[[2-[[[3-[(aminoiminomethyl)amino]phenyl]carbonyl]amino]acetyl]amino]-2(carboxymethoxy)benzenepropanoic acid, trifluoroacetate salt] |
| 22 | 0.58 | COc1cc(C(CC(=O)O)NC(=O)CNC(=O)c2cccc(NC(=N)N)c2)cc2c1OCO2 (stereo not drawn) [Example 256, β-[[2-[[[3-[(aminoiminomethyl)amino]phenyl]carbonyl]amino]acetyl]amino]-4-methoxy-1,3-benzodioxole-6-propanoic acid, trifluoroacetate salt] |
| 4660 | 49.2 | COc1ccc(Br)cc1C(CC(=O)O)NC(=O)CNC(=O)c1cccc(NC(=N)N)c1 (stereo not drawn) [Example 257, β-[[2-[[[3-[(aminoiminomethyl)amino]phenyl]carbonyl]amino]acetyl]amino]-5-bromo-2-methoxybenzenepropanoic acid, trifluoroacetate salt] |
| 86.7 | 0.81 | N=C(N)Nc1cccc(C(=O)NCC(=O)NC(CC(=O)O)c2cc3ccccc3o2)c1 (stereo not drawn) [Example 259, β-[[2-[[[3-[(aminoiminomethyl)amino]phenyl]carbonyl]amino]acetyl]amino]benzofuran-2-propanoic acid, trifluoroacetate salt] |
| 65.3 | 0.74 | N=C(N)Nc1cccc(C(=O)NCC(=O)NC(CC(=O)O)c2cccc(OCC(=O)O)c2)c1 (stereo not drawn) [Example 260, β-[[2-[[[3-[(aminoiminomethyl)amino]phenyl]carbonyl]amino]acetyl]amino]-3-(carboxymethoxy)benzenepropanoic acid, trifluoroacetate salt] |
| 4710 | 6.47 | N=C(N)Nc1cccc(C(=O)NCC(=O)NC(CC(=O)O)C(F)(F)F)c1 (stereo not drawn) [Example 261, 3-[[2-[[[3-[(aminoiminomethyl)amino]phenyl]carbonyl]aminoacetyl]amino]-4,4,4-trifluorobutanoic acid, trifluoroacetate salt] |
| 2760 | 4.19 | CC(C)C(CC(=O)O)NC(=O)CNC(=O)c1cccc(NC(=N)N)c1 (stereo not drawn) [Example 263, 3-[[2-[[[3-[(aminoiminomethyl)amino]phenyl]carbonyl]amino]acetyl]amino]-4-methylpentanoic acid, trifluoroacetate salt] |
